Columns and labels:
[1] = Cell viability assay (CCK-8), MIA Paca-2; type: cell-based; conditions: MIA Paca-2 cells (pancreatic carcinoma), MIA Paca-2, human pancreatic carcinoma, read-out: IC50 (μM) mean ± SD, cytotoxicity
Description: (§1) In cellular experiments, cells are seeded into either 6-well or 96-well plates and incubated overnight, proceeding with treatments as described in the figure legends or methods section. The cell inoculation numbers are outlined as follows: For assays measuring cell viability, between 3,000 to 5,000 cells are seeded per well in 96-well plates. For other cellular assays, the seeding density ranges from 5×10^5 to 1×10^6 cells per well in 6-well plates.
(§2) Cells was plated into 96-well plates and incubated overnight prior to introduction of varying concentrations of compounds or control solvent. Following a 72-hour exposure period, cell viability was determined using a Cell Counting Kit-8 assay (Life-iLab, China). Dose-response curves were fitted using a four-parameter method facilitated by SoftMax Pro, which was subsequently used for the computation of IC50 values.

[2] = Cell viability assay (CCK-8), HEK293; type: cell-based; conditions: HEK293 cells (embryo kidney), HEK293, human embryo kidney, read-out: IC50 (μM) mean ± SD, cytotoxicity
Description: as §1, §2

[3] = target: MK2 (Homo sapiens, UniProt P49137); assay: MK2 kinase inhibition assay (ADP-Glo); type: biochemical; conditions: mean ± SD of two independent tests
Sequence of MK2 (P49137 whole entry): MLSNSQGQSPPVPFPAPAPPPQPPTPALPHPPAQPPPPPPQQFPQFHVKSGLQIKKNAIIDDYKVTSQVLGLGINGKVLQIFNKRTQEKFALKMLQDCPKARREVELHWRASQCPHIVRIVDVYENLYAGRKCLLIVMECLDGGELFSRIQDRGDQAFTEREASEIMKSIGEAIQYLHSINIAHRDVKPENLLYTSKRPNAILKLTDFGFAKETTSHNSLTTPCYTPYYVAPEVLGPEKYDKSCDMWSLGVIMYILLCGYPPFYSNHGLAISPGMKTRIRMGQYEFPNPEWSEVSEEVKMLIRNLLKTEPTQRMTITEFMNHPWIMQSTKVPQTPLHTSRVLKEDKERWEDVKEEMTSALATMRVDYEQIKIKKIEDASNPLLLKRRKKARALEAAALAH
Description: To assess the impact of various compounds on MK2 kinase activity, we utilized the ADP‐Glo Assay Kit (Promega) following the manufacturer's instructions. Luminescence measurements were taken using a SpectraMax Paradigm reader. The inhibition percentage was calculated using the following formula: ((specific signalDMSO control − specific signal inhibitor)/(specific signalDMSO control)) × 100%. The IC50 values were determined employing dose–response curve fitting via Prism (Graph Pad).

[4] = tested on: p-Hsp27; assay: Cellular washout assay, p-Hsp27 by western blot; type: cell-based; conditions: 1 h pretreatment, then LPS
Description: FIGURE 4 Targeting cellular MK2 signaling with irreversible inhibition by compound 11. (A and B) RT‐PCR analysis of IL‐1β, TNF‐α, and IL‐6 expression in Lipopolysaccharides (LPS)‐stimulated THP‐1 (A) and RAW264.7 (B) Cells, with pre‐treatment of compound 11 for 3 h followed by LPS (3 h) stimulation. (C) The inhibitory effects of compound 11 on TNF‐α and IL‐6 production in LPS‐stimulated RAW264.7 macrophages for 24 h, measured by ELISA. (D and E) Compound 11, alongside CC‐99677 and PF‐3644022, suppressed MK2 pathway activation, validated through western blot analysis post‐LPS stimulation. Cells were preincubated with the specified compounds for 1 h prior to LPS stimulation (100 ng/mL, 30 min). (F) Distinguishes the mode of action between compound 11 and CC‐99677. The complex structure of a small molecule and MK2 (3R2Y) with the same parent nucleus as compound 11 is shown in cyans, and the complex structure of a small molecule and MK2 (3FYJ) with the same parent nucleus as CC‐99677 is shown in orange. (G–I) The effect of indicated inhibitor on Hsp27 phosphorylation following inhibitor washout. Cells were pretreated with indicated compounds for 1 h and then washed to remove free compound and incubated for a further indicated time before activation with LPS. In (A–C), LPS (100 ng/mL) served as the stimulation control, while untreated cells were the baseline control. The data represent as mean ± SD from triplicates, with statistical analysis conducted via one‐way analysis of variance (ANOVA) (^## p < 0.01, ^### p < 0.001 vs. stimulation control; ^***p < 0.001 vs. baseline control).
Furthermore, to validate the irreversible mechanism of action of compound 11 at the cellular level, we performed a cellular washout assay and assessed p‐Hsp27 levels. The established MK2 irreversible inhibitor CC‐99677 served as positive control, while the reversible ATP‐competitive inhibitor PF‐3644022 was used as negative control. […] In contrast, only 1 h after PF‐3644022 washout, p‐Hsp27 level was totally recovered (Figure 4I).
After the treatment outlined in the figure legends, cells were lysed using 1× sodium dodecyl sulfate (SDS) solution. The lysates were then subjected to SDS‐polyacrylamide gel electrophoresis for separation, followed by transferring onto nitrocellulose membranes. The membranes were incubated with primary antibodies specific to phospho‐MK2, phospho‐Hsp27, MK2, Hsp27, GAPDH, and β‐actin (Cell Signaling Technology), followed by horseradish peroxidase‐conjugated anti‐mouse or anti‐rabbit IgG secondary antibodies. Protein bands were detected using an enhanced chemiluminescence detection reagent (Thermo Fisher Scientific).

[5] = tested on: MC38 tumor; assay: In vivo antitumor evaluation in MC38 tumor model; design: species or system C57BL/6 mice
Description: C57BL/6 mice, aged 6 weeks, were house and cared for in a controlled, specific pathogen‐free environment. MC38 tumor cells (3.5 × 10[5] in 100 µL) were administered to the mice via subcutaneous injection into the right flanks. Upon reaching a tumor volume between 50 and 100 mm^3, mice were randomized and assigned to either the vehicle control group or the specified treatment group (n = 7/group). The details regarding the administration of inhibitors and the measurement of tumors are delineated in the Supporting Information Methods.
The mice then received intraperitoneal injections of either the vehicle control or compound 11 (at dosages of 25 or 50 mg/kg) twice daily for 10 days. Tumor size was gauged every three days with a microcaliper, and the tumor volume (TV) was estimated using the formula: TV = (length × width^2)/2. Additionally, the individual Tumor Growth Inhibition value (TGI) was assessed on the last day of the experiment for mice treated with the drug in comparison to those treated with the vehicle. The formula used was 100 × {1 - [(VTreated Final day -VTreated Day 0)/(VControl Final day -VControl Day 0)].

[6] = Cell viability assay (CCK-8), Raw264.7; type: cell-based; conditions: Raw264.7 cells (mononuclear macrophage), Raw264.7, mouse mononuclear macrophage, read-out: IC50 (μM) mean ± SD, cytotoxicity
Description: as §1, §2

[7] = Cell viability assay (CCK-8), MC38; type: cell-based; conditions: mouse, MC38 cells (colorectal carcinoma), MC38, murine colorectal carcinoma, read-out: IC50 (μM) mean ± SD, cytotoxicity
Description: as §1, §2

[8] = Cell viability assay (CCK-8), PANC-1; type: cell-based; conditions: PANC-1 cells (pancreatic carcinoma), PANC-1, human pancreatic carcinoma, read-out: IC50 (μM) mean ± SD, cytotoxicity
Description: as §1, §2

Compound: C=CC(=O)Nc1cc(-c2cc(-c3cc4c([nH]3)CCNC4=O)ccn2)ccc1OC(F)(F)F [compound 11]
- IC50 at 72 h [1]: 47.8 ± 2.8 µM
- IC50 at 72 h [2]: 29.9 ± 7.2 µM
- IC50 [3]: 2.3 nM
- p-Hsp27 level 3 h after inhibitor washout ([4]; 3 h): still significantly inhibited
- time after inhibitor washout at which p-Hsp27 level recovered [4]: 24 h
- tumor growth inhibition rate (TGI) ([5]; 25 mg/kg bid x10, ip): 47.5%
- tumor growth inhibition rate (TGI) ([5]; 50 mg/kg bid x10, ip): 64.0%
- IC50 at 72 h [6]: 31.7 ± 2.9 µM
- IC50 at 72 h [7]: 48.3 ± 10.5 µM
- IC50 at 72 h [8]: 35.3 ± 1.4 µM
